Structures are written as SMILES.

Here are results for five molecules from publication PMC6028563, “Probing Substituents in the 1- and 3-Position: Tetrahydropyrazino-Annelated Water-Soluble Xanthine Derivatives as Multi-Target Drugs With Potent Adenosine Receptor Antagonistic Activity” (Frontiers in Chemistry, 2018).

One test has as its target T1, human A3 AR (Homo sapiens, UniProt P0DMS8).
T1 construct: expressed in transfected cells; host or cells: CHO cells
T1 sequence (P0DMS8 1-318): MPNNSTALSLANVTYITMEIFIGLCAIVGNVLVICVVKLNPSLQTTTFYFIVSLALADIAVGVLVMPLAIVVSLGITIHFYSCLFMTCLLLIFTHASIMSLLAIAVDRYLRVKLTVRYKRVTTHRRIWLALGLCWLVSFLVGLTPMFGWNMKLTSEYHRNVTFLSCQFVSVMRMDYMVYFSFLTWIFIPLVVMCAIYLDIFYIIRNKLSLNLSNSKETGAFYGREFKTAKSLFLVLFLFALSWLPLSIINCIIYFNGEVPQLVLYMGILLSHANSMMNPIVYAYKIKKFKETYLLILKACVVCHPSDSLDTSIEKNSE
Description: Radioligand binding assay at human A3 AR vs. [^3H]PSB-11. The settings on record: for Ki: CHO cell membranes, n = 2 (n = 3 where marked a), read-out: Ki ± SEM, A3 vs. [^3H]PSB-11. The essentials:
(§1)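 Affinity values derive from radioligand displacement on membrane preparations: native rat tissue (cortex for A1, striatum for A2A) or CHO cells recombinantly expressing human A1, A2A, A2B or A3 ARs.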

The target in a further test is T2, human A2A AR (Homo sapiens, UniProt P29274).
T2 construct: expressed in transfected cells; host or cells: CHO cells
T2 sequence (P29274 whole entry): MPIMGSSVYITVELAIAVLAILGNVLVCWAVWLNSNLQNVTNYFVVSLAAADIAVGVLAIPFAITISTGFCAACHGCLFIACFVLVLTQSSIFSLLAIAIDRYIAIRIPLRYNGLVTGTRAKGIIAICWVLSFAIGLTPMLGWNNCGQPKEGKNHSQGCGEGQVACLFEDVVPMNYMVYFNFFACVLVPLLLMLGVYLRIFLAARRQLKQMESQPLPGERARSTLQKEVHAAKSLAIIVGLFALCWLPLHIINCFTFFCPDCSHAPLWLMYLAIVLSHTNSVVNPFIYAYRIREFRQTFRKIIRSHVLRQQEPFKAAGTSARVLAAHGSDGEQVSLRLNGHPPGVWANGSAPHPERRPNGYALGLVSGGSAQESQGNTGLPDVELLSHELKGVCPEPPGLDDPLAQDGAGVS
Put plainly: Radioligand binding assay at human A2A AR vs. [^3H]MSX-2. The settings on record: CHO cell membranes, n = 3, read-out: Ki ± SEM, A2A vs. [^3H]MSX-2. The protocol: (§2) Membrane preparations and radioligand binding assays at rat A1 (rat brain cortex) and rat A2A ARs (rat brain striatum) were performed as previously described (Ozola et al., [2003]; Alnouri et al., [2015]). For assays at human A1, A2A, A2B, and A3 ARs, CHO cell membranes expressing one of the human AR subtypes were used as previously reported (Klotz et al., [1998]; Alnouri et al., [2015]; De Filippo et al., [2016]).
(§3) The synthesized tetrahydropyrazino[2,1-f ]purinediones 13–20 were evaluated in radioligand binding assays for their affinity to A1 ARs of rat brain cortical membrane and to A2A ARs of rat brain striatal membrane preparations. Selected compounds were further investigated for their affinity to human A1 and A2A ARs recombinantly expressed in Chinese hamster ovary (CHO) cells. All compounds were additionally investigated for their affinity to human A2B and A3 ARs recombinantly expressed in CHO cells to determine their AR subtype selectivity. […] It is well known that all xanthine derivatives lacking a ribose moiety, including tricyclic compounds, can only block ARs, but never act as AR agonists; therefore, additional functional studies were not required. […] Potent MAO-B inhibitors were additionally investigated for inhibition of human MAO-A to assess their selectivity. Results are presented in Tables 1–6, and data of standard ligands are included for comparison.

The next test addresses T3, human A1 AR (Homo sapiens, UniProt P30542).
T3 construct: expressed in transfected cells; host or cells: CHO cells
T3 sequence (P30542 1-326): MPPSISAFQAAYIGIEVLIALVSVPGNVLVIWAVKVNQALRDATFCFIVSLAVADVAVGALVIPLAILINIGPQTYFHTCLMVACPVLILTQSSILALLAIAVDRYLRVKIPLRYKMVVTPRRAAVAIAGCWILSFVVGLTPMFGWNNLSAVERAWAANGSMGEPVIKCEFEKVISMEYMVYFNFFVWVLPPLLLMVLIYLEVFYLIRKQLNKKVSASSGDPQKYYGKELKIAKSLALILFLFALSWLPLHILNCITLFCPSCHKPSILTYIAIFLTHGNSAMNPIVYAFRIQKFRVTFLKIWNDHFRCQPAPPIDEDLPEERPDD
Put plainly: Radioligand binding assay at human A1 AR vs. [^3H]CCPA. The settings on record: human (h); CHO cell membranes; n = 3. The method, then: as §2, §3

For another test, the target named is T4, recombinant human MAO-B (Homo sapiens, UniProt P27338).
T4 construct: purchased Sigma-Aldrich M7441; host or cells: baculovirus-infected insect cells
T4 sequence (P27338 1-520): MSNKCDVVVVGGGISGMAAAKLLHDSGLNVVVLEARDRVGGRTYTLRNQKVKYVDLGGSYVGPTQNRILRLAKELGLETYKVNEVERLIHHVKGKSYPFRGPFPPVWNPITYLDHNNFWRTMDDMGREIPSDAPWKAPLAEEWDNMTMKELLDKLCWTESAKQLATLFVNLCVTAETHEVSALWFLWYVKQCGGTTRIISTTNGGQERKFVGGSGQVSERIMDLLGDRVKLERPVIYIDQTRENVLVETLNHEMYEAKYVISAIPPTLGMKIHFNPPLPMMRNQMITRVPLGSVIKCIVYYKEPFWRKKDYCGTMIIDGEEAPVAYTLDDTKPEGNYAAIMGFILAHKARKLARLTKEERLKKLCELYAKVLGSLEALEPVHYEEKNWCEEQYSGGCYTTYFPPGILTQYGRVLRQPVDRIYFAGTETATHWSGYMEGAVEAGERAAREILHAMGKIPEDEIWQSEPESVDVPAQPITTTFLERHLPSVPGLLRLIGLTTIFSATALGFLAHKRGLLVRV
Description: Monoamine oxidase assay (Amplex Red), MAO-B. The format is biochemical. The settings on record: for inhibition at 10 µM: at 10,000 nM (10 μM), read-out: % inhibition at indicated concentration, Human MAO-B; for IC50: n = 3, read-out: IC50 ± SEM, Human MAO-B. In outline: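 Inhibition was measured with an Amplex Red monoamine oxidase assay, using human MAO-A and MAO-B produced recombinantly in baculovirus-infected insect cells. For rat MAO-B, liver mitochondria-enriched fractions from male Sprague Dawley rats served as enzyme source.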

The target of another test is T5, rat A1 AR (Rattus norvegicus, UniProt P25099).
T5 construct: A1 ARs of rat brain cortical membrane; from tissue; host or cells: rat brain cortex membranes
T5 sequence (P25099 1-326): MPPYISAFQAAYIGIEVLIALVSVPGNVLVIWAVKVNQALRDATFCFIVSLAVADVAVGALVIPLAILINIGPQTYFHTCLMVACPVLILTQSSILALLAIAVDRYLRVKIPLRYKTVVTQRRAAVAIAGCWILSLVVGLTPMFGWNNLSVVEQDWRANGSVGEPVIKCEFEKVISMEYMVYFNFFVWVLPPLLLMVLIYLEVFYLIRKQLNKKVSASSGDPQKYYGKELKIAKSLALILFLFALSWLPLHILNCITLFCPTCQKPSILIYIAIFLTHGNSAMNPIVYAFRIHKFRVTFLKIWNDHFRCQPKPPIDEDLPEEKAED
Description: Radioligand binding assay at rat A1 AR (rat brain cortex) vs. [^3H]CCPA. The settings on record: rat (r); rat brain cortex; n = 3. In outline: as §1

The target of another test is T6, rat A2A AR (Rattus norvegicus, UniProt P30543).
T6 construct: A2A ARs of rat brain striatal membrane preparations; from tissue; host or cells: rat brain striatum membranes
T6 sequence (P30543 whole entry): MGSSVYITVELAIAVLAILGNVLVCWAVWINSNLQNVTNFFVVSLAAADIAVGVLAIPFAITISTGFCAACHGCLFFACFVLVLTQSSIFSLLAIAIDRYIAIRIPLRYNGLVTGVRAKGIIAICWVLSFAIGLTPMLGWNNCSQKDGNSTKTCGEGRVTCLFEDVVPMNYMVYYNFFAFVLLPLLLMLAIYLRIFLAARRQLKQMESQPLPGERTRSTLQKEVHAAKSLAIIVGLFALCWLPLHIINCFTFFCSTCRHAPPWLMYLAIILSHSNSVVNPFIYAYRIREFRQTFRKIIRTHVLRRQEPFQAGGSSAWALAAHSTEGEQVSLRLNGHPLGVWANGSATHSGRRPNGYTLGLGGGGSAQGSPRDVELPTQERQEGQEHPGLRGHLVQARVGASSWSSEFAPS
Description: Radioligand binding assay at rat A2A AR (rat brain striatum) vs. [^3H]MSX-2. Particulars: rat (r); rat brain striatum; n = 3; read-out: Ki ± SEM, A2A vs. [^3H]MSX-2. In outline: as §1

A further test deals with T7, human A2B AR (Homo sapiens, UniProt P29275).
T7 construct: expressed in transfected cells; host or cells: CHO cells
T7 sequence (P29275 1-332): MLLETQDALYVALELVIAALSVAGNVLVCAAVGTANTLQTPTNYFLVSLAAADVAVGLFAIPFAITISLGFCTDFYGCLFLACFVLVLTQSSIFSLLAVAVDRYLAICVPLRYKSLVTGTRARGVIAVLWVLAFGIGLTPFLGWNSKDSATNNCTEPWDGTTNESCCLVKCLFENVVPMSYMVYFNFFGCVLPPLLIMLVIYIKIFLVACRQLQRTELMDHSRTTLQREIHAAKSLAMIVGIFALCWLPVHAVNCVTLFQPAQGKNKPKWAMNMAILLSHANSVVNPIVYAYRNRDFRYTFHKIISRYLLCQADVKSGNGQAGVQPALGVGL
Description: Radioligand binding assay at human A2B AR vs. [^3H]PSB-603. Particulars: for Ki: CHO cell membranes, n = 2 (n = 3 where marked a), read-out: Ki ± SEM, A2B vs. [^3H]PSB-603; for inhibition at 1 µM: at 1,000 nM, read-out: % inhibition of radioligand binding at indicated concentration, A2B vs. [^3H]PSB-603. In outline: as §1

In another test the target is T8, recombinant human MAO-A (Homo sapiens, UniProt P21397).
T8 construct: purchased Sigma-Aldrich M7316; host or cells: baculovirus-infected insect cells
T8 sequence (P21397 1-527): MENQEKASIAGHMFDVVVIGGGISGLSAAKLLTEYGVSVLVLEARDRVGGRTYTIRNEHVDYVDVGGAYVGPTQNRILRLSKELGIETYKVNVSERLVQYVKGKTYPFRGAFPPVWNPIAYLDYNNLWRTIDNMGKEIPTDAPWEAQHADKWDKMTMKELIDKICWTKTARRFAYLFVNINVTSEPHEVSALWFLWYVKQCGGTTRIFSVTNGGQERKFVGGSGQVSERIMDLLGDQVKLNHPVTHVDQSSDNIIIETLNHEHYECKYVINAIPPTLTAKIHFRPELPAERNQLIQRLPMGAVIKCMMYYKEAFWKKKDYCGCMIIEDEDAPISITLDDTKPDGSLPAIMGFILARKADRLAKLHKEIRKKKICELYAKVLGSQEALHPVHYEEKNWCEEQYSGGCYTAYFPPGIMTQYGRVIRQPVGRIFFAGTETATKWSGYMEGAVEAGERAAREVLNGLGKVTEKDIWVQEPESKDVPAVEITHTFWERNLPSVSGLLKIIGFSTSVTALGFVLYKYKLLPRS
Description: Monoamine oxidase assay (Amplex Red), MAO-A. Particulars: for inhibition at 10 µM: at 10,000 nM, read-out: % inhibition at indicated concentration, Human MAO-A; for IC50: n = 3, read-out: IC50 ± SEM, Human MAO-A. The format is biochemical. The method, then:
The determination of MAO-A and MAO-B inhibition was performed using commercially available recombinant human MAO-A and MAO-B enzymes expressed in baculovirus-infected insects sells (Sigma-Aldrich, M7316 and M7441) applying the commercially available Amplex® Red monoamine oxidase assay kit (Invitrogen A12214). The assays were performed as previously described. The determination of rat MAO-B inhibition was performed using mitochondrial-enriched fractions from male Sprague Dawley rat livers. […]

Consider `C#CCn1c(=O)c2c(nc3n2CCN(c2ccc(F)cc2)C3)n(CC)c1=O` [Compound 20b, 1-ethyl-8-(4-fluorophenyl)-3-propargyl-6,7,8,9-tetrahydropyrazino[2,1-f]purine-2,4(1H,3H)-dione], for which the inhibitory constant (Ki) on human A3 AR is 2390 nM; on human A2A AR it was 378 ± 49 nM; on human A1 AR, 1530 nM; on rat A1 AR, 410 ± 60 nM; at rat A2A AR, 128 ± 20 nM; on human A2B AR, more than 1000 nM. Moreover, on recombinant human MAO-B, the inhibition at 10 µM worked out at 35%. For the same molecule, the IC50 at recombinant human MAO-B is more than 10000 nM. Moreover, on human A2B AR, the inhibition at 1 µM is 15%.
Regarding `C#CCn1c(=O)c2c(nc3n2CCN(Cc2ccccc2OC)C3)n(CC)c1=O` [Compound 20f, 1-ethyl-8-(2-methoxybenzyl)-3-propargyl-6,7,8,9-tetrahydropyrazino[2,1-f]purine-2,4(1H,3H)-dione], the inhibitory constant (Ki) is 7640 nM on human A3 AR; 311 ± 106 nM at human A2A AR; 210 ± 90 nM at human A1 AR; 32.7 ± 5.8 nM on rat A1 AR; 1200 nM at rat A2A AR; more than 1000 nM at human A2B AR. At recombinant human MAO-B, the inhibition at 10 µM was found to be 27%. The IC50 at recombinant human MAO-B is more than 10000 nM. The inhibition at 1 µM at human A2B AR stood at 18%.
As for `CCn1c(=O)c2c(nc3n2CCN(Cc2ccc(Br)cc2)C3)n(CC)c1=O` [Compound 15e, 8-(4-bromobenzyl)-1,3-diethyl-6,7,8,9-tetrahydropyrazino[2,1-f]purine-2,4(1H,3H)-dione], the Ki at human A3 AR was more than 1000 nM; on human A2A AR it was 4420 nM; at rat A1 AR, 54 ± 9.1 nM; on rat A2A AR, 1140 nM; on human A2B AR it was more than 1000 nM. For the same molecule, the inhibition at 1 µM came to 12% on human A3 AR (at 1,000 nM, read-out: % inhibition of radioligand binding at indicated concentration, A3 vs. [^3H]PSB-11) and 39% at human A2B AR. For the same molecule, at recombinant human MAO-A, the inhibition at 10 µM was found to be 25%. Moreover, the figures for the IC50 on recombinant human MAO-A and on recombinant human MAO-B were more than 10000 nM and 6510 nM, respectively.
As to `C#CCn1c(=O)c2c(nc3n2CCN(CCc2cccc(OC)c2)C3)n(CC)c1=O` [Compound 20j, 1-ethyl-8-(3-methoxyphenethyl)-3-propargyl-6,7,8,9-tetrahydropyrazino[2,1-f]purine-2,4(1H,3H)-dione], the Ki was more than 10000 nM on human A3 AR; 25500 nM on human A2A AR; 1020 nM at human A1 AR; 669 ± 35 nM on rat A1 AR; 798 ± 134 nM at rat A2A AR; more than 1000 nM on human A2B AR. For the same molecule, the inhibition at 10 µM on human A3 AR (at 10,000 nM, read-out: % inhibition of radioligand binding at indicated concentration, A3 vs. [^3H]PSB-11) turned out to be 13%; at recombinant human MAO-B, 30%. Further, at recombinant human MAO-B, the IC50 is more than 10000 nM. On human A2B AR, the inhibition at 1 µM was found to be 11%.
As for `CCn1c(=O)c2c(nc3n2CCN(Cc2cc(F)cc(Cl)c2)C3)n(C)c1=O` [Compound 14n, 8-(3-chloro-5-fluorobenzyl)-3-ethyl-1-methyl-6,7,8,9-tetrahydropyrazino[2,1-f]purine-2,4(1H,3H)-dione], the Ki on human A3 AR is 15600 nM; on human A1 AR, 298 ± 52 nM; at rat A1 AR, 36.2 ± 9.9 nM; at rat A2A AR, 981 ± 116 nM; on human A2B AR, more than 1000 nM. In addition, the inhibition at 10 µM at recombinant human MAO-A worked out at 19%. In addition, the results for the IC50 at recombinant human MAO-A and on recombinant human MAO-B were more than 10000 nM and 3740 nM, respectively. Moreover, the inhibition at 1 µM at human A2B AR was determined as 1%.
